According to patent US9914730B2, “Azaquinazoline inhibitors of Atypical protein Kinase C” (Ignyta, Inc., priority 2012, dated 2018):

Molecular target: T1, full-length human PKCι (Homo sapiens, UniProt P41743)
T1 construct: Recombinant, full-length human PKCι expressed in Sf21 insect cells is also commercially available; purchased; host or cells: Sf21 insect cells
T1 sequence (P41743 1-596): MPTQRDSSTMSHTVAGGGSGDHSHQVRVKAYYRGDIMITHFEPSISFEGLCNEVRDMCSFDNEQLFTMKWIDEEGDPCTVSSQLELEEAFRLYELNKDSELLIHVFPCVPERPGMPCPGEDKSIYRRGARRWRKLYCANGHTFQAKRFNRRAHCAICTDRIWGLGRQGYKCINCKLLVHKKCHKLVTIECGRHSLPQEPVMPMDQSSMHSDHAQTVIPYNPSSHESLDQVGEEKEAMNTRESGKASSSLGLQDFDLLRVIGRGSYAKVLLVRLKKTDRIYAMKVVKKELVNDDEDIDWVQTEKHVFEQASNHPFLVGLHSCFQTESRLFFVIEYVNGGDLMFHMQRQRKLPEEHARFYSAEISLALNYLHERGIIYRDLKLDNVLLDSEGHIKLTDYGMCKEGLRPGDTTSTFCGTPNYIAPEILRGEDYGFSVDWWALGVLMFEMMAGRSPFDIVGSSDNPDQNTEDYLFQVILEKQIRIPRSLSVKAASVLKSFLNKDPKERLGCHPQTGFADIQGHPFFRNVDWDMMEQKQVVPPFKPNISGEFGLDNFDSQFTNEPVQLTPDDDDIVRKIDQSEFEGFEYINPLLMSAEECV
Test: PKCι IC50 IMAP assay, full-length PKCι at 150 μM ATP
Type: biochemical
Settings: read-out: IC50 in IMAP assay against full length PKCi at 150 μM ATP
Procedure, shortened: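 Compounds in 4% final DMSO are mixed with Sf21-derived full-length human PKCι (typically 15 pM) and 100 nM FAM-labelled pseudosubstrate peptide, then started with 150 μM ATP. Reaction runs 60 min at room temperature, is quenched with IMAP development reagent for 2 h, and fluorescence polarisation is measured to derive IC50.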

First: Fc1cnccc1-c1nc(N2CCNCC2)c2ccncc2n1 [Example 65, 1-[2-(3-fluoropyridin-4-yl)pyrido[3,4-d]-pyrimidin-4-yl]-piperazine]
Second: Fc1cc(-c2nc(N3CCNCC3)c3c(C4CC4)cncc3n2)ccn1 [Example 689, 5-Cyclopropyl-2-(2-fluoro-pyridin-4-yl)-4-piperazin-1-yl-pyrido[3,4-d]pyrimidine]
The IC50 of the first is higher: 10 to 40 µM for the first, < 0.1 µM for the second. The second is the more potent here.

First: N[C@H](CNc1nc(-c2ccncc2)nc2c(-c3ccco3)nccc12)Cc1ccccc1 [Example 115, N-[(2S)-2-amino-3-phenylpropyl]-8-(furan-2-yl)-2-(pyridin-4-yl)pyrido[3,4-d]pyrimidin-4-amine]
Second: N[C@H](CNc1nc(-c2ccncc2)nc2c(-c3ccccc3)nccc12)Cc1ccccc1 [Example 90, N-[(2S)-2-amino-3-phenylpropyl]-8-phenyl-2-(pyridin-4-yl)pyrido[3,4-d]-pyrimidin-4-amine]
The IC50 of the first is lower: < 0.1 µM for the first, 0.1 to 1 µM for the second. The first is the more potent here.

`COc1cncc2nc(-c3ccnc4[nH]c(Cc5ccccc5)cc34)nc(N3CCNCC3)c12` [Example 1202, 2-(2-Benzyl-1H-pyrrolo[2,3-b]pyridin-4-yl)-5-methoxy-4-piperazin-1-yl-pyrido[3,4-d]pyrimidine] and `Clc1ccccc1-c1cc2c(-c3nc(N4CCNCC4)c4c(C5CCC5)cncc4n3)ccnc2[nH]1` [Example 2204, 2-[2-(2-Chloro-phenyl)-1H-pyrrolo[2,3-b]pyridin-4-yl]-5-cyclobutyl-4-piperazin-1-yl-pyrido[3,4-d]pyrimidine] cannot be ordered by IC50: < 0.1 µM for the first, < 0.1 µM for the second.

`Cn1nc(Nc2cc(-c3nc(N4CCNCC4)c4c(C5CC5)cncc4n3)ccn2)c2ccccc21` [Example 2061, [4-(5-Cyclopropyl-4-piperazin-1-yl-pyrido[3,4-d]pyrimidin-2-yl)-pyridin-2-yl]-(1-methyl-1H-indazol-3-yl)-amine] and `Cn1cnc2ccc(Nc3cc(-c4nc(N5CCNCC5)c5c(C6CC6)cncc5n4)ccn3)cc21` [Example 2149, [4-(5-Cyclopropyl-4-piperazin-1-yl-pyrido[3,4-d]pyrimidin-2-yl)-pyridin-2-yl]-(3-methyl-3H-benzoimidazol-5-yl)-amine] cannot be ordered by IC50: < 0.1 µM for the first, < 0.1 µM for the second.

Compared with `O=C1OCC2CN(c3nc(-c4ccnc(Nc5ccccc5)c4)nc4cncc(C5CC5)c34)CCN12` (stereo not drawn) [Example 525, 7-[5-Cyclopropyl-2-(2-phenylamino-pyridin-4-yl)-pyrido[3,4-d]pyrimidin-4-yl]-hexahydro-oxazolo[3,4-a]pyrazin-3-one], `CS(=O)(=O)C[C@H]1CN(c2nc(-c3ccnc(Nc4ccccc4)c3)nc3cncc(C4CC4)c23)CCN1` [Example 769, {4-[5-Cyclopropyl-4-((R)-3-methanesulfonyl-methyl-piperazin-1-yl)-pyrido[3,4-d]pyrimidin-2-yl]-pyridin-2-yl}-phenyl-amine] is lower in IC50: 0.1 to 1 µM for the first, < 0.1 µM for the second. The second is the more potent here.

`FC(F)(F)C1CN(c2nc(-c3ccnc4[nH]ccc34)nc3cncc(C4CC4)c23)CCN1` (stereo not drawn) [Example 1218, 5-Cyclopropyl-2-(1H-pyrrolo[2,3-b]pyridin-4-yl)-4-(3-trifluoromethyl-piperazin-1-yl)-pyrido[3,4-d]pyrimidine] and `C[C@H]1CN(c2nc(-c3ccnc4[nH]c(C(F)(F)F)cc34)nc3cncc(C4CC4)c23)CCN1` [Example 1233, 5-Cyclopropyl-4-((S)-3-methyl-piperazin-1-yl)-2-(2-trifluoromethyl-1H-pyrrolo[2,3-b]pyridin-4-yl)-pyrido[3,4-d]pyrimidine] cannot be ordered by IC50: < 0.1 µM for the first, < 0.1 µM for the second.

First: Cn1cc(-c2nccc3c(NC[C@@H](N)Cc4ccccc4)nc(-c4ccncc4)nc23)cn1 [Example 98, N-[(2S)-2-amino-3-phenylpropyl]-8-(1-methyl-1H-pyrazol-4-yl)-2-(pyridin-4-yl)-pyrido[3,4-d]-pyrimidin-4-amine]
Second: c1ccc(Nc2cc(-c3nc(NC[C@@H]4CCCN4)c4c(C5CC5)cncc4n3)ccn2)cc1 [Example 697, [5-Cyclopropyl-2-(2-phenylamino-pyridin-4-yl)-pyrido[3,4-d]pyrimidin-4-yl]-(S)-1-pyrrolidin-2-ylmethyl-amine]
The IC50 of the first is higher: 1 to 10 µM for the first, 0.1 to 1 µM for the second.

`COc1cncc2nc(-c3ccnc(Nc4ccc(F)cc4)c3)nc(N[C@@H]3CCNC3)c12` [Example 230, {2-[2-(4-Fluoro-phenyl-amino)-pyridin-4-yl]-5-methoxy-pyrido[3,4-d]pyrimidin-4-yl}-(R)-pyrrolidin-3-yl-amine] and `COc1cncc2nc(-c3ccnc(Nc4cnccn4)c3)nc(N3CCNCC3)c12` [Example 201, [4-(5-Methoxy-4-piperazin-1-yl-pyrido[3,4-d]pyrimidin-2-yl)-pyridin-2-yl]-pyrazin-2-yl-amine] cannot be ordered by IC50: < 0.1 µM for the first, < 0.1 µM for the second.

`Clc1cccc(Nc2cc(-c3nc(N4CCNCC4)c4c(C5CC5)cncc4n3)ccn2)n1` [Example 514, (6-Chloro-pyridin-2-yl)-[4-(5-cyclopropyl-4-piperazin-1-yl-pyrido[3,4-d]pyrimidin-2-yl)-pyridin-2-yl]-amine] and `Fc1cccc2nc(Nc3cc(-c4nc(N5CCNCC5)c5c(C6CC6)cncc5n4)ccn3)nn12` [Example 2041, [4-(5-Cyclopropyl-4-piperazin-1-yl-pyrido[3,4-d]pyrimidin-2-yl)-pyridin-2-yl]-(5-fluoro-[1,2,4]triazolo[1,5-a]pyridin-2-yl)-amine] cannot be ordered by IC50: < 0.1 µM for the first, < 0.1 µM for the second.

Compared with `COc1cncc2nc(-c3ccncc3)nc(N3CCN4C(=O)OC[C@H]4C3)c12` [Example 86, (3aR)-5-[5-methoxy-2-(pyridin-4-yl)pyrido[3,4-d]pyrimidin-4-yl]-hexahydro-1H-[1,3]oxazolo[3,4-a]piperazin-1-one], `Cc1ccnc(Nc2cc(-c3nc(N4CCNCC4)c4c(Cl)cncc4n3)ccn2)c1` [Example 256, [4-(5-Chloro-4-piperazin-1-yl-pyrido[3,4-d]pyrimidin-2-yl)-pyridin-2-yl]-(4-methyl-pyridin-2-yl)-amine] is lower in IC50: 1 to 10 µM for the first, < 0.1 µM for the second.

`CN1CCC(Sc2nc(-c3ccnc(Nc4c(F)cccc4F)c3)nc3cncc(C4CC4)c23)CC1` [Example 2128, {4-[5-Cyclopropyl-4-(1-methyl-piperidin-4-ylsulfanyl)-pyrido[3,4-d]pyrimidin-2-yl]-pyridin-2-yl}-(2,6-difluoro-phenyl)-amine] and `CC(=O)NC1CCN(c2nc(-c3ccnc(Nc4c(F)cccc4F)c3)nc3cncc(C4CC4)c23)CC1` [Example 657, N-(1-{5-Cyclopropyl-2-[2-(2,6-difluoro-phenylamino)-pyridin-4-yl]-pyrido[3,4-d]pyrimidin-4-yl}-piperidin-4-yl)-acetamide] fall in the same range of IC50: 0.1 to 1 µM for the first, 0.1 to 1 µM for the second.

First: c1cc(-c2nc(N3CCNCC3)c3c(C4CCC4)cncc3n2)c2cc([C@H]3C[C@H]4CC[C@@H]3C4)[nH]c2n1 (racemic) [Example 2135, (±)-endo-2-(2-Bicyclo[2.2.1]hept-2-yl-1H-pyrroIo[2,3-b]pyridin-4-yl)-5-cyclobutyl-4-piperazin-1-yl-pyridor3,4-d]pyrimidine]
Second: c1ccc2c(c1)[nH]c1nccc(-c3nc(N4CCNCC4)c4c(C5CCC5)cncc4n3)c12 [Example 2090, 4-(5-Cyclobutyl-4-piperazin-1-yl-pyrido[3,4-d]pyrimidin-2-yl)-9H-pyrido[2,3-b]indole]
The IC50 of the first is lower: < 0.1 µM for the first, 0.1 to 1 µM for the second. The first is the more potent here.

Compared with `O[C@@H]1CN(c2nc(-c3ccnc(Nc4cccc(N5CCOCC5)c4)c3)nc3cncc(C4CC4)c23)CC[C@@H]1O` (racemic) [Example 2005, (+/−)-cis-1-{5-Cyclopropyl-2-[2-(3-morpholin-4-yl-phenylamino)-pyridin-4-yl]-pyrido[3,4-d]pyrimidin-4-yl}-piperidine-3,4-diol], `Cc1ccc(C(C)C)cc1Nc1cc(-c2nc(N3CCNCC3)c3c(C4CC4)cncc3n2)ccn1` [Example 558, [4-(5-Cyclopropyl-4-piperazin-1-yl-pyrido[3,4-d]pyrimidin-2-yl)-pyridin-2-yl]-(5-isopropyl-2-methyl-phenyl)-amine] is higher in IC50: < 0.1 µM for the first, 0.1 to 1 µM for the second.

`CN(c1nc(-c2ccnc3[nH]c(C(F)(F)F)cc23)nc2c(Cl)ncc(C3CC3)c12)C1CCNCC1` [Example 2136, [8-Chloro-5-cyclopropyl-2-(2-trifluoromethyl-1H-pyrrolo[2,3-b]pyridin-4-yl)-pyrido[3,4-d]pyrimidin-4-yl]-methyl-piperidin-4-yl-amine] and `CC1(C)CN(c2nc(-c3ccnc(Nc4nc(F)ccc4F)c3)nc3cncc(C4CC4)c23)CCN1` [Example 838, {4-[5-Cyclopropyl-4-(3,3-dimethyl-piperazin-1-yl)-pyrido[3,4-d]pyrimidin-2-yl]-pyridin-2-yl}-(3,6-difluoro-pyridin-2-yl)-amine] cannot be ordered by IC50: < 0.1 µM for the first, < 0.1 µM for the second.

First: Fc1cc(F)c(-n2cc(Nc3cc(-c4nc(N5CCNCC5)c5c(C6CC6)cncc5n4)ccn3)cn2)c(F)c1 [Example 820, [4-(5-Cyclopropyl-4-piperazin-1-yl-pyrido[3,4-d]pyrimidin-2-yl)-pyridin-2-yl]-[1-(2,4,6-trifluoro-phenyl)-1H-pyrazol-4-yl]-amine]
Second: COc1cncc2nc(N3CCOCC3)nc(N3CCNCC3)c12 [Example 1003, 5-Methoxy-2-morpholin-4-yl-4-piperazin-1-yl-pyrido[3,4-d]pyrimidine]
The IC50 of the first is lower: < 0.1 µM for the first, 0.1 to 1 µM for the second.
